# Patent US20070293514A1, “Triazolopyrimidines” (priority 2003, published 2007)
# Assay: logP by HPLC (EEC Directive 79/831 Annex V. A8, gradient method)
# Type: physicochemical
# Conditions: acetonitrile/0.1% aqueous phosphoric acid
Structure (SMILES),chromatographic logP,logP
"CCC(C)c1c(Cl)nc2ncnn2c1Cl (stereo not drawn) [5,7-dichloro-6-sec-butyl[1,2,4]triazolo[1,5-a]pyrimidine]",2.4,
Cc1nc2nc(Cl)c(-c3cc(F)ccc3F)c(NC(C)[Si](C)(C)C)n2n1 (stereo not drawn) [Example 17],3.73,
C[Si](C)(C)CNc1c(-c2ccccc2Cl)c(Cl)nc2nc(C3CC3)nn12 [Example 20],,4.23
CC(C)c1nc2nc(Cl)c(-c3ncncc3F)c(NC(C)[Si](C)(C)C)n2n1 (stereo not drawn) [Example 9],,3.61
CC(Nc1c(-c2c(F)cc(F)cc2F)c(Cl)nc2ncnn12)[Si](C)(C)C (stereo not drawn) [Example 2],3.71,
CC(C)c1nc2nc(Cl)c(-c3cc(F)ccc3F)c(NC[Si](C)(C)C)n2n1 [Example 16],4.21,
CC(Nc1c(-c2ncccc2C(F)(F)F)c(Cl)nc2ncnn12)[Si](C)(C)C (stereo not drawn) [Example 10],,3.06
"CCC(C)c1c(Cl)nc2ncnn2c1NC[Si](C)(C)C (stereo not drawn) [Example 26, 5-chloro-6-sec-butyl-7-trimethylsilylmethylamino[1,2,4]triazolo[1,5-a]pyrimidine]",3.34,
CC(Nc1c(-c2cc(F)ccc2F)c(Cl)nc2ncnn12)[Si](C)(C)C (stereo not drawn) [Example 40],3.57,
C[Si](C)(C)CNc1c(-c2ccc(F)cc2Cl)c(Cl)nc2ncnn12 [Example 1],3.61,
C[Si](C)(C)CNc1c(-c2cc(F)ccc2F)c(Cl)nc2nc(C3CC3)nn12 [Example 13],3.99,
Cc1nc2nc(Cl)c(-c3ncncc3F)c(NC(C)[Si](C)(C)C)n2n1 (stereo not drawn) [Example 28],,2.73
CC(Nc1c(-c2ncncc2Cl)c(Cl)nc2ncnn12)[Si](C)(C)C (stereo not drawn) [Example 23],,2.70
C[Si](C)(C)CNc1c(-c2c(F)cc(F)cc2F)c(Cl)nc2ncnn12 [Example 4],3.39,
C[Si](C)(C)CNc1c(-c2ncncc2Cl)c(Cl)nc2ncnn12 [Example 24],,2.44
CC(Nc1c(-c2ccc(F)cc2Cl)c(Cl)nc2ncnn12)[Si](C)(C)C (stereo not drawn) [Example 6],,3.95
C[Si](C)(C)CNc1c(-c2ncncc2F)c(Cl)nc2ncnn12 [Example 41],,2.28

Structure (SMILES),chromatographic logP,logP
CC(Nc1c(-c2c(F)cccc2Cl)c(Cl)nc2ncnn12)[Si](C)(C)C (stereo not drawn) [Example 5],,3.79
C[Si](C)(C)CNc1c(-c2c(F)cccc2Cl)c(Cl)nc2ncnn12 [Example 3],,3.43
CC(C)c1nc2nc(Cl)c(-c3ncc(C(F)(F)F)cc3Cl)c(NC[Si](C)(C)C)n2n1 [Example 8],,4.51
CC(Nc1c(-c2ncncc2F)c(Cl)nc2ncnn12)[Si](C)(C)C (stereo not drawn) [Example 42],,2.57
C[Si](C)(C)CNc1c(-c2c(F)cccc2Cl)c(Cl)nc2nc(C3CC3)nn12 [Example 12],,4.22
CC(Nc1c(-c2ccccc2Cl)c(Cl)nc2nc(C3CC3)nn12)[Si](C)(C)C (stereo not drawn) [Example 21],,4.66
"CCC(C)c1c(O)n2ncnc2[nH]c1=O (stereo not drawn) [6-sec-butyl-7-hydroxy[1,2,4]triazolo[1,5-a]pyrimidin-5(4H)-one]",0.7,
C[Si](C)(C)CNc1c(-c2cc(F)ccc2F)c(Cl)nc2ncnn12 [Example 39],3.26,
CC(C)c1nc2nc(Cl)c(-c3cc(F)ccc3F)c(NC(C)[Si](C)(C)C)n2n1 (stereo not drawn) [Example 15],4.58,
Cc1nc2nc(Cl)c(-c3cc(F)ccc3F)c(NC[Si](C)(C)C)n2n1 [Example 18],3.4,
CC(Nc1c(-c2ccccc2Cl)c(Cl)nc2ncnn12)[Si](C)(C)C (stereo not drawn) [Example 7],,3.83
CC(Nc1c(-c2ncncc2F)c(Cl)nc2nc(C3CC3)nn12)[Si](C)(C)C (stereo not drawn) [Example 19],,2.99
C[Si](C)(C)CNc1c(-c2ncncc2F)c(Cl)nc2nc(C3CC3)nn12 [Example 22],,3.02
Cc1nc2nc(Cl)c(-c3ncncc3F)c(NC[Si](C)(C)C)n2n1 [Example 27],,2.43
CC(Nc1c(-c2c(F)cccc2Cl)c(Cl)nc2nc(C3CC3)nn12)[Si](C)(C)C (stereo not drawn) [Example 11],,4.65
CC(Nc1c(-c2cc(F)ccc2F)c(Cl)nc2nc(C3CC3)nn12)[Si](C)(C)C (stereo not drawn) [Example 14],4.35,
